Tests used:
[1] = test system: Plasmodium falciparum; assay: NOVARTIS: Inhibition of Plasmodium falciparum 3D7 (drug-susceptible) proliferation in erythrocyte-based infection assay; assay type: functional, organism-based; details: Plasmodium falciparum, 3D7
[2] = test system: Plasmodium falciparum; assay: NOVARTIS: Inhibition of Plasmodium falciparum W2 (drug-resistant) proliferation in erythrocyte-based infection assay; assay type: functional, organism-based; details: Plasmodium falciparum, W2; read-out: EC50
[3] = NOVARTIS: Cytotoxicity against human hepatocellular carcinoma cell line (Huh7); assay type: toxicity, cell-based, Huh-7; details: Huh7 cells (hepatocellular carcinoma cell line)

Structure (SMILES)	EC50 [1] [µM]	EC50 [2] [µM]	CC50 [3] [µM]
CCN1/C(=C/c2sc3cc(OC)c(OC)cc3[n+]2CC)C=Cc2ccccc21	0.136	0.104	> 10
CCOC(=O)c1[nH]c2ccccc2c1N=NN(C)C	0.128	0.376	36.1
O=C1CSc2ccccc2N1	> 10.7	1.08	> 100
Cn1nc(C(F)(F)F)c(-c2ccc(F)cc2)c1NC(=O)Nc1ccc(F)cc1	0.241	0.254	23.6
O=C(c1ccc([N+](=O)[O-])o1)N1CCN(c2cccc(Cl)c2)CC1	6.33	1.04	> 100
COc1nc(NC(=N)N)nc2ccc(C)cc12	0.88	0.608	58
Fc1ccccc1CCNc1ncnc2c1[nH]c1ccccc12	0.165	0.15	14.3
CN1CCN(c2nc(NN=Cc3cc(Br)c(O)cc3O)nc(Nc3ccc([N+](=O)[O-])cc3)n2)CC1	0.321	0.104	> 10
CCOC(=O)c1c(NC(=O)c2ccc([N+](=O)[O-])cc2[N+](=O)[O-])sc2c1CCCC2	> 12.5	1.04	> 100
Cc1c(-c2ccc(Cl)cc2)[n+]2c(n1-c1ccccc1)SCCC2	1.15	1.04	> 100
O=C1[C@@H]2Cc3c([nH]c4ccccc34)C(CCc3ccccc3)N2C(=O)CN1CCc1c[nH]c2ccccc12 (stereo not given in full)	2.81	1.05	> 100
COc1cc(NC(C)=C2C(=O)c3ccccc3C2=O)c(OC)cc1Cl	2.4	1.04	> 100
CCCCN(CC(=O)Nc1cc(C(C)(C)C)nn1-c1ccc(Cl)cc1)C(=O)c1ccc(OC)cc1	> 1.39	0.0527	5.08
COC(=O)c1cccc(-c2cc(Cl)c3c(c2)CC(CNC(=O)c2c(C)noc2C)O3)c1 (stereo not given)	0.881	0.786	75.9
CC(C)(C)CC(C)(C)Nc1c(-c2ccccc2OC(=O)C2CCC2)nc2ccccn12	0.729	0.104	> 10
O=C1CC(c2ccc([N+](=O)[O-])cc2)C2=C(CC(c3ccc(F)cc3)CC2=O)N1 (stereo not given)	2.02	1.07	> 100
Fc1ccc(CN2CCc3nc(N4CCCCC4)sc3C2)cc1F	1.1	1.07	> 100
O=c1nc(C=Cc2ccc(Cl)cc2)oc2ccccc12	1.1	1.06	> 100
CCCCc1ccc(C(=O)Oc2ccccc2-c2nc3cc(C)ccn3c2NC(C)(C)CC(C)(C)C)cc1	0.616	0.107	> 10
Nc1c(C(=O)Nc2ccc(C3=NCCN3)cc2)cccc1C(=O)Nc1ccc(C2=NCCN2)cc1	0.259	0.107	> 10
Clc1ccc2c(N3CCC(n4cccc4)CC3)ccnc2c1	1.02	1.05	> 100
CCN(CC)CCN1C(=O)c2ccccc2NC1c1ccc(C)cc1 (stereo not given)	0.858	1.05	> 100
CCC(C)(C)n1nnnc1C(c1cc2cc(C)cc(C)c2[nH]c1=O)N1CCN(c2ccc(O)cc2)CC1 (stereo not given)	2.44	1.07	> 100
Fc1ccc(-c2c[n+](-c3ccccc3)c3n2CCS3)cc1	0.764	1.07	> 100
Cc1ccc(-c2nc3ncccc3o2)cc1NC(=O)COc1ccc(C(C)(C)C)cc1	0.42	1.05	> 100
CCOc1ccc2[nH]c(=O)c(C(c3nnnn3CCOC)N3CCCC3)cc2c1 (stereo not given)	> 12.5	1.05	> 100
COc1ccc(OC)c(-c2ccc(O)c(CNCCc3cccc(F)c3)c2)c1	0.675	0.106	> 10
COc1ccc(CCN2C(=O)N(CCN(C)C)C(=O)C23CCN(Cc2ccc(O)cc2)CC3)cc1	0.221	0.828	78.5

Structure (SMILES)	EC50 [1] [µM]	EC50 [2] [µM]	CC50 [3] [µM]
COc1ccc(CN2CCC(C(=O)Nc3ccc(Oc4cccnc4)cc3)CC2)cc1	2.23	0.64	59.4
CC(=O)N(C1=C(N2CCOCC2)C(=O)c2ccccc2C1=O)c1ccc(I)cc1	0.0737	0.108	10
Cn1nc(C(F)(F)F)c(C(=O)Nc2ccc(Cl)cc2)c1Sc1ccc(Cl)cc1	0.749	0.369	34.8
COc1ccc(/C=C2\SC(=Nc3ccccc3OC)NC2=O)cc1	0.249	0.106	> 10
CCCCCNC(=O)C1CSC(c2ccoc2)N1C(=O)c1ccccc1Cl (stereo not given)	2.32	1.06	> 100
COc1ccccc1Nc1nc(NCc2ccccc2)c2ccccc2n1	0.312	0.212	19.6
Cc1ccc(C#N)c(SCc2nnc(-c3ccc(Cl)cc3)o2)n1	> 1.25	0.108	> 10
Sc1nnc(-c2ccncc2)n1CCc1ccccc1	> 7.49	1.08	> 100
CCCCCN(CCCCC)C(O)c1cc2c(c3ccccc13)CCCC2 (stereo not given)	0.0582	0.377	35.5
COc1ccc(-[n+]2cc(-c3ccc(Cl)cc3)n3c2SCCC3)cc1	0.673	1.06	> 100
O=C1C2C(C(=O)N1c1cccc3ccccc13)C1C=CC2C12CC2 (stereo not given)	6.59	1.09	> 100
COc1ccc2c(c1)C(C)(CC#N)C(=O)N2C (stereo not given)	5.64	1.06	> 100
C=CCn1c(COc2ccccc2C)nnc1SCC(=O)O	> 12.5	1.05	> 100
C=C[C@H]1CN2CC[C@H]1C[C@@H]2[C@@H](OC(=O)c1ccco1)c1ccnc2ccccc12	0.149	0.104	> 10
COc1ccccc1N1C(=N)SC(=Cc2ccc(OCc3ccccc3F)cc2)C1=O	0.422	1.08	> 100
c1cc2cc3c(cc2c2cc4c(cc12)C[N+]1(CCCC1)C4)C[N+]1(CCCC1)C3	0.645	1.06	> 100
CCOC(=O)N1CCC(NC(=O)c2c(C)nn(-c3cccc(C)c3)c2-n2cccc2)CC1	0.28	1.06	> 100
O=C(COc1ccc(Cl)cc1)N1CCCn2cccc2C1c1ccc(Cl)cc1 (stereo not given)	0.631	0.108	> 10
CCc1ccc(NC(=O)c2sc3nc4c(c(-c5ccco5)c3c2N)CCCC4)cc1	1.82	1.07	> 100
CC(=O)N(C1=C(N2CCOCC2)C(=O)c2ccccc2C1=O)c1ccc(Br)cc1	0.239	0.2	19.1
O=C1CSc2nc3ccccc3n21	7.92	1.06	> 100
Cc1cccc(CCNc2cc(C)nc3ncnn23)c1	0.841	1.08	> 100
NCC(c1ccc(F)cc1)c1ccc(F)cc1	> 0.345	0.0998	> 9.21
CN1CCN(c2nc(Nc3ccc(O)cc3)nc3ccccc23)CC1	0.626	0.443	41.8
CC[n+]1c(C=C2C=CN(C)C=C2)ccc2cc(C)ccc21	0.388	0.286	> 26.8
COc1ccc(C=CC(=O)Nc2ccncc2)cc1OC	0.358	1.07	> 100
CC(C)(C)NCC(O)Cn1c2ccc(I)cc2c2cc(I)ccc21 (stereo not given)	0.608	0.064	6.09

Reference: ChEMBL document CHEMBL1156829 (Proc Natl Acad Sci U S A, 2008)
